From paper PMC5225203, “Multiparameter toxicity assessment of novel DOPO-derived organophosphorus flame retardants” (Archives of Toxicology, 2016)

Key:
human neural crest cells = test system: human neural crest cells; design: method as in Zimmer et al. [2014]; details: concentrations as high as 100 µM; ref Zimmer et al. [2014]; cited from earlier work
A549 cells = test system: A549 cells; design: method as in Kim et al. [2014]; details: same concentration range as used in the present study; ref Kim et al. [2014]; cited from earlier work
[1] = test system: rat adrenomedullary pheochromocytoma PC12 cells; details: PC12, 24 h, maximal concentration 100 µM; ref Hendriks et al. [2014]; cited from earlier work
Daphnia magna = details: water-soluble fraction of a 1000 mg/L suspension (approximately 2 mM), 48 h; ref Waaijers et al. [2013a], [b]; cited from earlier work
[2] = test system: differentiating LUHMES cells; type: cell-based, human; details: day 0 to day 2
Procedure: LUHMES cells are conditionally immortalized human fetal ventral mesencephalic neuronal precursor cells that were obtained by clonal selection. Differentiated LUHMES cells show a clear dopaminergic phenotype, which was described in detail previously (Schildknecht et al. [2009]; Scholz et al. [2011]). Cells were propagated in advanced DMEM/F12 (Gibco/Invitrogen, Darmstadt, Germany) with 1 × N2 supplement (Invitrogen), 2 mM L-glutamine (Gibco), and 40 ng/mL recombinant bFGF (R&D Systems, Minneapolis, MN, USA). […] For quantitative evaluation of the neurite area, β-III-tubulin-stained cells were analyzed using an automated microplate-reading microscope (Array-Scan II® HCS Reader, Cellomics, Pittsburgh, PA, USA) equipped with a Hamamatsu ORCA-ER camera (1024 × 1024 resolution; run at 2 × 2 binning). […]
For quantitative assessment of total neurite mass, cells were analysed by an automated microscope system with imaging algorithms allowing a separation between cell bodies and […]
Suppl. […] Differentiating human dopaminergic neurons (LUHMES) were treate d with the different flame retardants in the concentrations as indicated for 48 h from day 0 to day 2 of differentiation. a Cell viability was determined by the resazurin redu ction and by the lactate dehydrogenase release assays. b Intracellular levels of ATP and of reduced glutathione (GSH) were measured in parallel.

Brc1ccc(Oc2cc(Br)c(Br)cc2Br)c(Br)c1 [PBDE-99, reference compound]
NCC migration and cell death (human neural crest cells): inhibited migration in the absence of cell death
cell damage in A549 cells (A549 cells): did not produce cell damage

O=[PH]1Oc2ccccc2-c2ccccc21 (stereo not drawn) [DOPO, 9,10-dihydro-9-oxa-10-phosphaphenanthrene-10-oxide]
alterations in cell viability, generation of reactive oxygen species, or intracellular Ca2+ levels [1]: no signs of alterations
influence on daphnid viability (Daphnia magna): did not significantly influence viability

O=P1(NCCNP2(=O)Oc3ccccc3-c3ccccc32)Oc2ccccc2-c2ccccc21 (stereo not drawn) [EDA-DOPO, 6,6′-(ethane-1,2-diylbis(azanediyl))bis(6H-dibenzo[c,e][1,2]oxaphosphinine-6-oxide)]
influence on total neurite area [2]: moderate, but significant influence
intracellular levels of ATP and GSH [2]: this effect was not reflected
